Patent US20170327598A1, “SINGLE DOMAIN ANTIBODIES DIRECTED AGAINST INTRACELLULAR ANTIGENS” (SINGH MOLECULAR MEDICINE, LLC, priority 2014, published 2017)
Where “and” joins values, the source holds several entries; their conditions need not be identical. Equal values may be shown once. Read-outs that look alike come from different tables or passages of the source.

Experiments:
[1] = test system: MDA-MB-468 cells; test: MTT proliferation assay, MDA-MB-468; format: cell-based, human; settings: MDA-MB-468, 72 hours
[2] = test system: rabbit anti-llama biotinylated antibody or his-probe (H-3) biotin labeled antibody; test: ELISA with sdAbs coated, binding of secondary antibodies (Experiments 2 and 3)
Procedure: Two assays (Experiment 2 and 3) were performed to assess the binding of the secondary antibody to the sdAbs. A similar ELISA method was utilized except the sdAbs were directly coated onto the assay plate at a concentration of 1 μg/mL. Plates were incubated overnight at 2-8° C. After the incubation, plates were washed (3×) and blocked (3% BSA in PBS) for at least one hour at room temperature.
After removal of the blocking buffer and washing (3×), the secondary antibodies, either rabbit anti-llama biotinylated antibody or his-probe (H-3) biotin labeled antibody at was then added at a 1:5,000 dilution to each well and incubated with shaking for at least one hour at room temperature. Only the rabbit anti-llama biotinylated antibody was used in Experiment 2. Both antibodies were run in parallel in Experiment 3.
After the incubation with secondary antibody, the plates were again washed (3×) and HRP at a 1:50,000 dilution was added to each well. Plates were incubated with shaking for at least one hour at room temperature. One last wash (3×) was performed followed by the addition of TMB substrate and plates were incubated at room temperature. For the anti-llama biotinylated antibody stop solution was added to halt the colorimetric reaction at 10 minutes. The his-probe (H-3) biotin labeled antibody was allowed to incubate for 20 minutes prior to stopping. The absorbance at 450 nm was measured as before.

[3] = test system: PANC-1 cells; test: PANC-1 growth inhibition with or without Gemcitabine; settings: SBT-100 100 μg/ml alone, 72 hours (Table 44)
[4] = test system: U87 mg cells; test: Anti-proliferative effect, U87 mg cells; format: cell-based; settings: for Absorbance ± S.E. / % Inhibition: 72 hr
[5] = test system: BT474 human breast tumor xenograft; test: BT474 human breast tumor xenograft in CB.17 SCID mice, Example 13; format: in vivo
[6] = test system: ARPE-19 cells; test: BCA protein content of ARPE-19 cell lysate, Experiment 1; format: cell-based; settings: 24 Hr; for Protein Conc.: cell lysate
Procedure: For Experiment 1, the retinal cell line ARPE-19 (ATCC, Manassas, Va.) were plated at 5×10^4 cells/well into a 24-well plate and grown to confluence. All incubations with cells were performed in a 37° C., 5% CO2 humidified incubator. The media was replaced with growth media (DMEM:HAM12) containing 1% FBS and incubated overnight. […] At that time, the supernatant was removed and stored at <−65° C. for ELISA analysis. Cells were lysed using RIPA lysis buffer (ThermoFisher Scientific, Rockford, Ill.) and the protein content of the cell lysate was measured in the BCA assay (ThermoFisher Scientific) according to the kit instructions. VEGF-A was measured utilizing the Human VEGF-A ELISA Kit (ThermoFisher Scientific) in accordance with the kit instructions.
ELISA results were reported as pictograms (pg) VEGF-A/mL and then adjusted for the dilution of samples in the ELISA (1:2 for Experiment 1 and 1:5 for Experiment 2). The ELISA results were then normalized for protein content. […] The positive control (PC) (anti-STAT3 monoclonal antibody) ranged from 48.8 to 66.4 pg VEFG/[…] slightly lower but overlapping the range seen with the negative control. Statistical analysis confirmed that the variation seen was not statistically significant (P value >0.05). The samples collected at 72 hours were higher than the top standard curve.

[7] = test system: human KRAS; test: Biacore 3000 protein binding, KRAS ligand immobilized (Example 22); settings: sdAb as analyte
[8] = test system: MDA-MB-231 human breast cancer xenograft; settings: for Individual Tumor Measurements: listed as anti-STAT3 bacterial VHH13
[9] = test system: GloResponse SIE-luc2P/HEK 293 cells; test: BCA protein concentration of reporter cells run in parallel; format: cell-based; settings: highest concentration
[10] = test system: BT474 cells; test: MTT proliferation assay, BT474; format: cell-based, human; settings: BT474, 72 hours
[11] = test system: DU145 tumor xenograft; test: DU145 xenograft study, Example 11
[12] = test system: PANC-1 cells; test: MTT proliferation assay, PANC-1; format: cell-based, human; settings: for Mean Absorbance (570 nM) ± S.E.: single experiments 1-3, listed as B.VHH13

For “Anti-STAT3 VHH13: anti-STAT3 single domain antibody, SEQ ID NO:3; bacterially produced form referred to as SBT-100”, the “Mean Abs” value ([1]; 0.39 μg/ml) was 0.311, the “% Inhibition” value ([1]; 3.13 μg/ml) was 11.9% and the “Mean Abs” value ([1]; 3.13 μg/ml) was 0.223. The “% Inhibition” value ([1]; 6.25 μg/ml) was 9.1%, the “Mean Abs” value ([1]; 6.25 μg/ml) was 0.230 and the “% Inhibition” value ([1]; 25 μg/ml) was 73.5%. For the same substance, the “Mean Abs” value ([1]; 25 μg/ml) was 0.067, the “% Inhibition” value ([1]; 50 μg/ml) was 83.4% and the “Mean Abs” value ([1]; 50 μg/ml) was 0.042. The “% Inhibition” value ([1]; 100 μg/ml) was 85.0%, the “Mean Abs” value ([1]; 100 μg/ml) was 0.038 and the “% Inhibition” value ([1]; 200 μg/ml) was 84.4%. The “Mean Abs” value ([1]; 200 μg/ml) was 0.040, the “OD450 Values” ([2]; His-probe (H-3), Experiment 3, stored 1:100 dilution of sdAb) was 0.360 and the “OD450 Values” ([2]; Rabbit anti-Llama Secondary Antibody, Experiment 2, sdAb coated at 1 μg/mL) was 1.313. The “OD450 Values” ([2]; Rabbit anti-Llama Secondary Antibody, Experiment 3, stored 1:100 dilution of sdAb) was 0.363, the Absorbance [3] was 0.333 and the “Absorbance ± S.E.” value ([4]; 25 μg/ml) was 0.687 ± 0.03. For the same substance, the “% Inhibition” value ([4]; 50 μg/ml) was 18%, the “Absorbance ± S.E.” value ([4]; 50 μg/ml) was 0.456 ± 0.01 and the “% Inhibition” value ([4]; 100 μg/ml) was 51%. The “Absorbance ± S.E.” value ([4]; 100 μg/ml) was 0.271 ± 0.02, the “% Inhibition” value ([4]; 200 μg/ml) was 62% and the “Absorbance ± S.E.” value ([4]; 200 μg/ml) was 0.211 ± 0.03. For the same substance, the IC50 ([4]; U87 mg cells) was 65 µg/mL, the “Absorbance ± S.E.” value ([4]; […]) was 0.702 ± 0.04 and the T-C ([5]; 1 mg/kg ip tid × 14 first day 2 doses) was 10.8. For the same substance, the “effect on growth of BT474 tumors in vivo” value ([5]; 1 mg/kg ip tid×14, compared to the control group) was “did not reduce the growth”, the “MTV (n) Day 60” value ([5]; Day 60, 1 mg/kg ip tid × 14, n in parentheses) was 550 (3) and the tumor volume ([5]; day 59 of the study, both groups) was 700 cubic mm^3. For the same substance, the “Total protein per well” value ([6]; 0.1 μg/well) was 12 and 16 and 18, the “Protein Conc.” value ([6]; 0.1 μg/well) was 245 µg/mL and 323 µg/mL and 357 µg/mL and the “Total protein per well” value ([6]; 0.5 μg/well) was 16 and 13. For the same substance, the “Protein Conc.” value ([6]; 0.5 μg/well) was 315 µg/mL and 268 µg/mL and 206 µg/mL, the “binding to KRAS ligand” value [7] was “bound” and the “% mean tumor growth inhibition” value ([8]; 500 μg/kg bw IP QDx14) was 33.64%. For the same substance, the tumor doubling time ([8]; 500 μg/kg bw IP QDx14) was 61.06 days, the “mean tumor size (±SE)” value ([8]; 500 μg/kg bw IP QDx14, day 14 of dosing) was 118.86±15.94 and the “Individual Tumor Measurements” value ([8]; Group 2, 500 μg/kg bw IP QDx14, single animals, Day 1) was 123.94 mm^3 and 85.93 mm^3 and 147.34 mm^3 and 115.91 mm^3 and 73.23 mm^3. For the same substance, the “Tumor Measurements, group Mean” value ([8]; Group 2, Day 1) was 102.61 mm^3, the “Tumor Measurements, group Mean” value ([8]; Group 2, Day 6) was 101.16 mm^3 and the “Tumor Measurements, group Mean” value ([8]; Group 2, Day 9) was 112.44 mm^3. The “Tumor Measurements, group Mean” value ([8]; Group 2, Day 12) was 112.92 mm^3, the “Tumor Measurements, group Mean” value ([8]; Group 2, Day 16) was 118.86 mm^3 and the “Tumor Measurements, group Mean” value ([8]; Group 2, Day 20) was 128.49 mm^3. The “Individual Tumor Measurements” value ([8]; Group 2, single animals, Day 6) was 114.91 mm^3 and 101.06 mm^3 and 148.72 mm^3 and 103.64 mm^3 and 82.59 mm^3, the “Individual Tumor Measurements” value ([8]; Group 2, single animals, Day 9) was 129.22 mm^3 and 112.60 mm^3 and 169.69 mm^3 and 108.37 mm^3 and 110.13 mm^3 and the “Individual Tumor Measurements” value ([8]; Group 2, single animals, Day 12) was 176.04 mm^3 and 112.24 mm^3 and 185.08 mm^3 and 141.21 mm^3 and 91.22 mm^3. The “Individual Tumor Measurements” value ([8]; Group 2, single animals, Day 16) was 170.09 mm^3 and 139.56 mm^3 and 170.07 mm^3 and 144.51 mm^3, the “Individual Tumor Measurements” value ([8]; Group 2, single animals, Day 20) was 162.98 mm^3 and 96.43 mm^3 and 256.71 mm^3 and 119.42 mm^3 and the decrease in protein [9] was “approximately 2 fold”. For the same substance, the “Mean Abs” value ([10]; 0.39 μg/ml) was 0.322, the “Mean Abs” value ([10]; 3.13 μg/ml) was 0.446 and the “Mean Abs” value ([10]; 6.25 μg/ml) was 0.469. The “Mean Abs” value ([10]; 25 μg/ml) was 0.256, the “Mean Abs” value ([10]; 50 μg/ml) was 0.145 and the “Mean Abs” value ([10]; 100 μg/ml) was 0.046. The “Mean Abs” value ([10]; 200 μg/ml) was 0.040, the “% treatment/control” value ([11]; 5 mg/kg bw IP BIDx14) was 74.8% and the tumor doubling time ([11]; 5 mg/kg bw IP BIDx14) was 18.19 days. The “mean tumor growth inhibition” value ([11]; 5 mg/kg bw IP BIDx14, end of the study) was 26.6%, the “mean tumor size (±SE)” value ([11]; 5 mg/kg bw IP BIDx14, last day of dosing (Day 14)) was 364.14±51.64 and the “mean tumor size (±S.E.)” value ([11]; 5 mg/kg bw IP BIDx14, termination (day 28)) was 601.83±131.51. The “Mean Absorbance (570 nM) ± S.E., Overall Mean” value (shortened to “Mean Absorbance … Overall Mean”) ([12]; PANC-1, Day 3, 10.0 μg/ml) was 0.472 ± 0.020, the “Mean Absorbance (570 nM) ± S.E.” value ([12]; PANC-1, Day 3, 10.0 μg/ml) was 0.432 ± 0.015 and 0.491 ± 0.087 and 0.493 ± 0.029 and the “Mean Absorbance … Overall Mean” value ([12]; PANC-1, Day 3, 100 μg/ml) was 0.214 ± 0.047. For the same substance, the “Mean Absorbance (570 nM) ± S.E.” value ([12]; PANC-1, Day 3, 100 μg/ml) was 0.307 ± 0.012 and 0.169 ± 0.094 and 0.166 ± 0.028, the “Mean Absorbance … Overall Mean” value ([12]; PANC-1, Day 5, 10.0 μg/ml) was 0.643 ± 0.126 and the “Mean Absorbance … Overall Mean” value ([12]; PANC-1, Day 5, 100 μg/ml) was 0.219 ± 0.012. The “Mean Absorbance (570 nM) ± S.E.” value ([12]; PANC-1, Day 5, 100 μg/ml) was 0.243 ± 0.024 and 0.211 ± 0.006 and 0.203 ± 0.013.
